What all share (assay): NCI anticancer screen, dose series, 48 h
In test [1] the test system is A498 renal.
Test [2] deals with ACHN renal.
For test [3], the system named is CAKI-1 renal.
The subject of test [4] is HT29 colon.
The subject of test [5] is MCF7 breast.
The subject of test [6] is MDA-MB-435.
The subject of test [7] is MOLT-4 leukemia.
Test [8] deals with NCI/ADR-RES ovarian.
Test [9] relates to RPMI-8226 leukemia.
Test [10] deals with SF-268 CNS.
Test [11] relates to SN12C renal.
Test [12] has as its system SW-620 colon.
For test [13], the system named is A549 NSCLC.
Test [14] has as its system SNB-19 CNS.

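Tested at 5 concentrations; 48 h exposure; 96-well plates; endpoints linearly interpolated, else capped at highest concentration. TGI marks complete inhibition of growth.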

For the compound `O=C(/C=C(\Nc1ccccc1O)c1ccccc1)C(=O)NC12CC3CC(CC(C3)C1)C2`, the TGI in test [1] was over 10 µM; in test [2], over 10 µM; in test [3] it was over 10 µM; in [4], 5.87 µM; in test [5], over 10 µM; in test [6] it was over 10 µM. Further, the TGI in test [7], in test [8], in [9], in test [10], in test [11] and in test [12] was over 10 µM in each case.

Turning to `Oc1c(-c2ccccc2)sc2ccccc12`, the TGI in test [1] was 88.4 µM; in [13] it was 81.4 µM; in [2] it was over 100 µM; in [3], 13.6 µM; in [4], 81.6 µM; in test [5], 65.8 µM. For the same compound, the TGI in [6] is over 100 µM; in [7] it was 88.6 µM; in test [8], over 100 µM; in test [9], 43.5 µM; in [10], over 100 µM; in [14], over 100 µM. This compound returned a TGI in [12] of over 100 µM.

In the case of `CN(C)CCCNc1nnc(NCCCN(C)C)c2c(=O)c3sccc3[nH]c12`, the TGI in test [1] is over 100 µM; in test [13], over 78.9 µM; in test [2] it was over 100 µM; in test [3], over 48.9 µM; in [5], over 100 µM; in test [6], over 54.7 µM. Further, the TGI is 14.4 µM in test [7]; over 100 µM in [8]; 57.2 µM in test [9]; 25.7 µM in test [10]; 50.9 µM in [11]; over 100 µM in [14]. In [12], the TGI was over 72.2 µM.

For `C#CCOC(=O)C(N)CSSCC(N)C(=O)O` (stereo not given), the TGI in test [1], in test [13], in [2], in [3], in test [5] and in [6] was over 100 µM each time. Further, the TGI in test [7], in test [8], in test [9], in [10], in [11] and in [14] was over 100 µM each time. This compound also came in with a TGI in [12] of over 100 µM.

On to `CCOC(=O)c1cc(C2CCN(Cc3ccccc3)C2=O)c(C(=O)C(=[N+]=[N-])C(C)=O)[nH]1` (stereo not given), for which the TGI in test [1], in test [13], in test [3], in test [4], in test [5] and in test [6] was over 100 µM each time. The TGI in [7], in test [8], in test [9], in test [10], in [11] and in [14] was over 100 µM in each case. For the same compound, the TGI in test [12] is over 100 µM.

For the compound `c1ccc2c3c([nH]c2c1)C1c2[nH]c4ccccc4c2CCN1CC3`, the TGI in [1] amounted to 34.4 µM; in test [13], 36.2 µM; in test [2], 27.1 µM; in [3] it was 34.2 µM; in [4], 26.7 µM; in test [5] it was 30.8 µM. Besides, the TGI in [6] is 33.5 µM; in test [7] it was 42.1 µM; in test [8], 5.47 µM; in test [9], over 100 µM; in [10], 30.3 µM; in test [11], 32.6 µM. Moreover, the TGI in test [12] came to 45.5 µM.

With `COC(=O)NN=C(c1ccc(Cl)cc1)c1ccc(Cl)cc1`, the TGI in test [1], in test [13], in [3], in test [4], in test [5] and in [6] was over 100 µM in each case. Further, the TGI in test [7], in test [8], in test [9], in test [10], in test [11] and in test [14] was over 100 µM each time. The TGI in [12] was over 100 µM.

`CCCCNC(=O)Nc1c(C(N)=O)c2n(c1C(=O)OCC)CCCCC2`: the TGI in test [1], in test [2], in test [3], in [4], in test [5] and in test [6] was over 100 µM each time. The TGI in test [7], in [8], in test [9], in test [10], in [14] and in test [12] was over 100 µM each time.

In the case of `CCN1CC2=C(NC(=S)NC2c2cc(OC)c(OC)c(OC)c2)/C(=C/c2cc(OC)c(OC)c(OC)c2)C1` (stereo not given), the TGI in [1] was 87.8 µM; in test [13], over 100 µM; in test [2], over 100 µM; in test [3], over 100 µM; in [4] it was over 100 µM; in test [5], over 100 µM. Besides, the TGI is over 100 µM in test [6]; over 100 µM in test [7]; over 100 µM in test [8]; 42.9 µM in test [9]; 37.7 µM in test [10]; over 100 µM in [14]. The TGI in test [12] is over 100 µM.

Values taken from PubChem BioAssay (NCI).
